13 molecules from ChEMBL document CHEMBL1909046, “DrugMatrix in vitro pharmacology data” can be followed below.

The target in experiment [1] is Adenosine receptor A2a (Homo sapiens, UniProt P29274). Description: DRUGMATRIX: Adenosine A2A radioligand binding (ligand: […]). To be noted: hek293; Not Active = under 50% inhibition at 10 µM. The experiment is classed as cell membranes, HEK293, Membrane.
In experiment [2] the target is T1, Muscarinic acetylcholine receptor M5 (Homo sapiens, UniProt P08912). Further: in other assays of this panel Not Active means under 50% inhibition at 10 µM.
T1 sequence (P08912 whole entry): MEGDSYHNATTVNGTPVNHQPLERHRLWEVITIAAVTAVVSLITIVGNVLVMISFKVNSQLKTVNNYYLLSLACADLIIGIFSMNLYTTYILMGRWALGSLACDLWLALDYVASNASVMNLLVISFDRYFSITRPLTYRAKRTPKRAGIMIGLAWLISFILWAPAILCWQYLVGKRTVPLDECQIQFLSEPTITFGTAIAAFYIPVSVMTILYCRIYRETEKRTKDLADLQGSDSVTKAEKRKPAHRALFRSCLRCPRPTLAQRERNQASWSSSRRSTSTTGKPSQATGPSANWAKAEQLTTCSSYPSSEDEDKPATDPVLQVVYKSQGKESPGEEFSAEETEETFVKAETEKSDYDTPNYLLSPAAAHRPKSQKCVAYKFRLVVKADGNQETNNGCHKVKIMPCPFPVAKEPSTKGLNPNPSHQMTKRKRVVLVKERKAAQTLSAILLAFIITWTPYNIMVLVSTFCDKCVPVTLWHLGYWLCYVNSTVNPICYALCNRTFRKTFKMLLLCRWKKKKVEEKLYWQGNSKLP
The experiment is classed as cell membranes, CHO-K1, Membrane.

In experiment [3] the target is T2, Neutrophil elastase (Homo sapiens, UniProt P08246).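 Further: inhibition of neutrophil elastase enzyme activity, measured with a p-nitroanilide-linked peptide substrate; in other assays of this panel Not Active means under 50% inhibition at 10 µM.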
T2 sequence (P08246 whole entry): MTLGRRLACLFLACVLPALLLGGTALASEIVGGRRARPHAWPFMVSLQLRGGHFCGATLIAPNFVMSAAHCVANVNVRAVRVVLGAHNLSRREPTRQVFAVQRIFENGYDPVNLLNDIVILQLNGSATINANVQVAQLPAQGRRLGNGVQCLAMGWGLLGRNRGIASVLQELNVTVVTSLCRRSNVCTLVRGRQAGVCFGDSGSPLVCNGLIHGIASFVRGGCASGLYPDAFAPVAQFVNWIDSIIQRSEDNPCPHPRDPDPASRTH
It is filed as tissue-based.

Experiment [4] addresses Carbonic anhydrase 2 (Homo sapiens, UniProt P00918). As to the kind of experiment: DRUGMATRIX: Carbonic Anhydrase II enzyme inhibition (substrate: 4-Nitrophenyl acetate (4-NPA)). The experiment is classed as tissue-based, Erythrocyte. To be noted: erythrocyte; Not Active = under 50% inhibition at 10 µM.
Experiment [5] in a line: DRUGMATRIX: Glutamate, NMDA, Agonism radioligand binding (ligand: [3H] CGP-39653). It is filed as cell membranes, Rattus norvegicus, Wistar, Cerebral cortex, Membrane. To be noted: Not Active = under 50% inhibition at 10 µM.
Experiment [6] deals with T3, Alpha-1A adrenergic receptor (Rattus norvegicus, UniProt P43140).
T3 sequence (P43140 whole entry): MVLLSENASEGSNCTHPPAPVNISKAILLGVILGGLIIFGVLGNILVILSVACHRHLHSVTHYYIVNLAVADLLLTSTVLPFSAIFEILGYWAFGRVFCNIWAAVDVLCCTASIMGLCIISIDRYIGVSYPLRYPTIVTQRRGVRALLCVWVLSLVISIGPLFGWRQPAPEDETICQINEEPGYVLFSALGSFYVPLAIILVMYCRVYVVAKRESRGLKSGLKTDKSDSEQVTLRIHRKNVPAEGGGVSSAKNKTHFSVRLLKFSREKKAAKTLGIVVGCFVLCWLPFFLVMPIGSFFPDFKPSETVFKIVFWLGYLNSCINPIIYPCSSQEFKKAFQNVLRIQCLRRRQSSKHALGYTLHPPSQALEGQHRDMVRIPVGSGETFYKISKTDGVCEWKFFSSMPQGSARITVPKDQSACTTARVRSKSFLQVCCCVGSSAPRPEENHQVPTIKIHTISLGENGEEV
Description: DRUGMATRIX: Alpha-1A adrenergic receptor radioligand binding (ligand: prazosin). The experiment is classed as cell membranes, Wistar, Submaxillary gland, Membrane. To be noted: Not Active = under 50% inhibition at 10 µM; for Ki: read-out: Ki.

In experiment [7] the target is Substance-P receptor (Homo sapiens, UniProt P25103). It is filed as cell membranes, Membrane. To be noted: cho. Further: in other assays of this panel Not Active means under 50% inhibition at 10 µM.
Experiment [8] concerns the target T4, Cathepsin G (Homo sapiens, UniProt P08311).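 Further: inhibition of Cathepsin G enzyme activity, tested on an AMC-conjugated peptide substrate; in other assays of this panel Not Active means under 50% inhibition at 10 µM.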
T4 sequence (P08311 whole entry): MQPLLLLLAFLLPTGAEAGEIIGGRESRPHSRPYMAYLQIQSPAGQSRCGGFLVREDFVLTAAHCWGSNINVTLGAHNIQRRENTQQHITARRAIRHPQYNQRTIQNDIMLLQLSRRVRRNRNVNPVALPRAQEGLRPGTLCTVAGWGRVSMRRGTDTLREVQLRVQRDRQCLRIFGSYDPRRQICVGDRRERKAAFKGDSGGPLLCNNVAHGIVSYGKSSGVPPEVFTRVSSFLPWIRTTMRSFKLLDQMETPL
It is filed as tissue-based. To be noted: neutrophil.

Experiment [9] has as its target T5, Amine oxidase [flavin-containing] A (Homo sapiens, UniProt P21397).
T5 sequence (P21397 whole entry): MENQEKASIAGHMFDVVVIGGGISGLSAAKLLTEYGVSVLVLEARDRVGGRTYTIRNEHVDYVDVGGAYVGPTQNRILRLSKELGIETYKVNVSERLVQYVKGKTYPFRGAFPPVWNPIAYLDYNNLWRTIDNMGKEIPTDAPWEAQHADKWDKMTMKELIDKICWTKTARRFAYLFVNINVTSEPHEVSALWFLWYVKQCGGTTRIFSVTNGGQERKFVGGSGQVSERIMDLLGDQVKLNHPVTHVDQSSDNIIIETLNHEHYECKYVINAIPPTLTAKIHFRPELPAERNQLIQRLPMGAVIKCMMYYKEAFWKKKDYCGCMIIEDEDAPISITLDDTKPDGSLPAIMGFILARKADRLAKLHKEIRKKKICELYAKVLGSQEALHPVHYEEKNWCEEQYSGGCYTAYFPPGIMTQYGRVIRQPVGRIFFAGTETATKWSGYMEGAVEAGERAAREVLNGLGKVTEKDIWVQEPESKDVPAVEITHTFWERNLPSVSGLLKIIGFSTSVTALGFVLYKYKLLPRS
Description: DRUGMATRIX: Monoamine Oxidase MAO-A enzyme inhibition (substrate: Kynuramine). To be noted: bti-tn-5b1-4; Not Active = under 50% inhibition at 10 µM. More on the design: species or system BTI-TN-5B1-4.

As usually defined, the IC50 is the concentration needed to halve the response being measured. The term Ki denotes a measure of affinity in units of concentration, obtained from inhibition or displacement.

Chain of Substance-P receptor (P25103 whole entry): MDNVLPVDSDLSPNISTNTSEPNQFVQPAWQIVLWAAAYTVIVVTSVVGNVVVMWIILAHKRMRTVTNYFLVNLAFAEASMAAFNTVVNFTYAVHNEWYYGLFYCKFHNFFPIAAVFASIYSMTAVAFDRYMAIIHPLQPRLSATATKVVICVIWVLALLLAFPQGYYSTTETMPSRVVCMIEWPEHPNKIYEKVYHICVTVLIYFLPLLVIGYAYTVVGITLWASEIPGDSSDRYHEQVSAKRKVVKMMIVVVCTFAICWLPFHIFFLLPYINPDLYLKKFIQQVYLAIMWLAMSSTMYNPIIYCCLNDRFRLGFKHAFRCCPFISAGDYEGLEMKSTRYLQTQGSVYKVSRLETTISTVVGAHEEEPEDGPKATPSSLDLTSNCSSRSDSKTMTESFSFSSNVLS
Chain of Adenosine receptor A2a (P29274 whole entry): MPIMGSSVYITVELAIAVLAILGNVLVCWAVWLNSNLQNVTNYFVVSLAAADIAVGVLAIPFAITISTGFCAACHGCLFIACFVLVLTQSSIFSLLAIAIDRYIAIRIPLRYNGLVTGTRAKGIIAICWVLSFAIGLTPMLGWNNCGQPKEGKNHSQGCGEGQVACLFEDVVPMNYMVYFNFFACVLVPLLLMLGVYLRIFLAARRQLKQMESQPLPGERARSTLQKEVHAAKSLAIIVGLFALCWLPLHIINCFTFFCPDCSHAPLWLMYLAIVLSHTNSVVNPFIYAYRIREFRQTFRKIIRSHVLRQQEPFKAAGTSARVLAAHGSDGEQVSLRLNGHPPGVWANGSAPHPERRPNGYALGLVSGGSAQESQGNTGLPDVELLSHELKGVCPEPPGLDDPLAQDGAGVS

As to `CC1=C(CC(=O)O)c2cc(F)ccc2/C1=C\c1ccc([S+](C)[O-])cc1` (centres undefined), the IC50 entry in [1], in experiment [2] (cho-k1), in [3], in experiment [4], in [5] and in experiment [6] was “Not Active” in each case. For the same molecule, the IC50 result in [7], in experiment [8] and in experiment [9] was “Not Active” throughout. Further, the Ki result in experiment [5] is listed as “Not Active”.

Regarding `N[C@H](CSC(=S)NCc1ccccc1)C(=O)O`, the IC50 result in experiment [1], in experiment [2] (cho-k1), in experiment [3], in experiment [4], in [5] and in experiment [6] was “Not Active” throughout. For the same molecule, the IC50 entry in experiment [7], in [8] and in [9] was “Not Active” each time. In addition, the inhibition constant (Ki) result in experiment [5] was “Not Active”.

As for `CC(=O)N[C@@H]1[C@H](Oc2c3cc4cc2Oc2ccc(cc2Cl)[C@@H](O[C@@H]2O[C@@H](CO)[C@@H](O)[C@H](O)[C@@H]2NC(C)=O)[C@@H]2NC(=O)[C@H](NC(=O)[C@@H]4NC(=O)[C@H]4NC(=O)[C@@H](Cc5ccc(c(Cl)c5)O3)NC(=O)[C@H](N)c3ccc(O)c(c3)Oc3cc(O)cc4c3)c3ccc(O)c(c3)-c3c(O[C@H]4O[C@H](CO)[C@@H](O)[C@@H](O)[C@@H]4O)cc(O)cc3[C@@H](C(=O)O)NC2=O)O[C@@H](CO)[C@@H](O)[C@@H]1O`, the IC50 entry in experiment [1], in experiment [2] (cho-k1), in experiment [3], in [4], in experiment [5] and in [6] was “Not Active” throughout. Besides, the IC50 entry in experiment [7], in experiment [8] and in experiment [9] was “Not Active” throughout. Also, the Ki result in experiment [5] is “Not Active”.

Regarding `Clc1ccc2c(c1)C(N1CCNCC1)=Nc1ccccc1O2` [AMOXAPINE], the IC50 result is “Not Active” in experiment [1]; “Not Active” in experiment [3]; “Not Active” in experiment [4]; 357 nM in [6] (read-out: IC50); “Not Active” in experiment [7]; “Not Active” in experiment [8]. Moreover, the IC50 result in experiment [9] is listed as “Not Active”. Besides, the Ki in experiment [6] was found to be 144 nM.

For `COc1cc2c(c(OC)c1OC)-c1ccc(OC)c(=O)cc1[C@@H](NC(C)=O)CC2` [COLCHICINE], the IC50 entry in [1], in experiment [2] (cho-k1), in experiment [3], in experiment [4], in [6] and in experiment [7] was “Not Active” each time. Further, the IC50 entry in [8] and in [9] was “Not Active” each time.

In the case of `CN1CCC(=C2c3ccccc3C=Cc3ccccc32)CC1` [CYPROHEPTADINE], the IC50 result in experiment [1] was “Not Active”; in experiment [2] (read-out: IC50), 3.83 nM; in experiment [3], “Not Active”; in experiment [4] it was “Not Active”; in experiment [6] (read-out: IC50), 241 nM; in [7], “Not Active”. Moreover, the IC50 entry in experiment [8] and in experiment [9] was “Not Active” throughout. Moreover, the Ki was determined as 2.75 nM in [2] (read-out: Ki) and 98 nM in experiment [6].

Regarding `CC/C(=C(/CC)c1ccc(O)cc1)c1ccc(O)cc1` [DIETHYLSTILBESTROL], the IC50 result in experiment [3] is “Not Active”; in experiment [4] it was “Not Active”; in [6] (read-out: IC50) it was 19500 nM; in [7], “Not Active”; in experiment [8], “Not Active”; in experiment [9], “Not Active”. In addition, the Ki in experiment [6] turned out to be 7890 nM.

Take `CC(=O)N1CCN(c2ccc(OCC3COC(Cn4ccnc4)(c4ccc(Cl)cc4Cl)O3)cc2)CC1` (centres undefined) [KETOCONAZOLE]: the IC50 result in experiment [1] was “Not Active”; in [2] (cho-k1), “Not Active”; in experiment [3], “Not Active”; in [4], “Not Active”; in experiment [5], “Not Active”; in experiment [6] (read-out: IC50), 35700 nM. The IC50 result in experiment [7], in [8] and in experiment [9] was “Not Active” throughout. The Ki entry is “Not Active” in experiment [5] and 14500 nM in experiment [6].

As for `C=CCN1CC[C@]23c4c5ccc(O)c4O[C@H]2C(=O)CC[C@@]3(O)[C@H]1C5` [NALOXONE], the IC50 entry in experiment [1], in [2] (cho-k1), in experiment [3], in experiment [4], in experiment [6] and in [7] was “Not Active” each time. In addition, the IC50 result in [8] and in experiment [9] was “Not Active” in each case.

With `COCCOC(=O)C1=C(C)NC(C)=C(C(=O)OC(C)C)C1c1cccc([N+](=O)[O-])c1` (centres undefined) [NIMODIPINE], the IC50 result in experiment [1], in [2] (cho-k1), in [3], in [4], in experiment [5] and in experiment [6] was “Not Active” throughout. For the same molecule, the IC50 result in experiment [7], in [8] and in [9] was “Not Active” in each case. Also, in experiment [5], the Ki result is listed as “Not Active”.

Regarding `CC(C)NCC(O)COc1cccc2ccccc12` (centres undefined) [PROPRANOLOL], the IC50 result in experiment [1], in [2] (cho-k1), in experiment [3], in experiment [4], in experiment [6] and in [7] was “Not Active” each time. Further, the IC50 entry in experiment [8] and in experiment [9] was “Not Active” in each case.

Take `O=C(c1ccc(OCCN2CCCCC2)cc1)c1c(-c2ccc(O)cc2)sc2cc(O)ccc12` [RALOXIFENE]: the IC50 entry in experiment [2] (cho-k1) is “Not Active”; in [3], “Not Active”; in [4] it was “Not Active”; in experiment [5], “Not Active”; in [6] (read-out: IC50), 2200 nM; in experiment [7] it was “Not Active”. The IC50 result in experiment [8] and in experiment [9] was “Not Active” in each case. In addition, the Ki result in experiment [5] was “Not Active”; in experiment [6], 892 nM.

In the case of `Cc1onc(-c2ccccc2)c1-c1ccc(S(N)(=O)=O)cc1` [VALDECOXIB], the IC50 entry in [1], in [2] (cho-k1), in experiment [3], in experiment [5], in experiment [6] and in experiment [7] was “Not Active” throughout. Also, the IC50 entry in experiment [8] and in experiment [9] was “Not Active” in each case. Moreover, in experiment [5], the inhibition constant Ki result is reported as “Not Active”.
